ChEMBL document CHEMBL1136654, “1H-Pyrazolo[3,4-b]pyridine inhibitors of cyclin-dependent kinases” (Bioorg Med Chem Lett, 2003)

Assays:
[1] = target: Cyclin-dependent kinase 2/cyclin E (Homo sapiens, UniProt P24941); assay: In vitro inhibition of human CDK2/cyclin E.; format: protein-complex assay
[2] = target: Cyclin-dependent kinase 1/cyclin B (Homo sapiens, UniProt P06493); assay: Inhibitory concentration against CDK1/cyclin B was determined; format: protein-complex assay
A2780 = assay: Cytotoxic effect in ovarian cancer cell line (A2780); format: functional, cell-based; details: Homo sapiens
[3] = target: Cyclin-dependent kinase 4/cyclin D (Homo sapiens, UniProt P11802); assay: Inhibition of CDK4/cyclin D was determined; format: protein-complex assay
[4] = target: cAMP-dependent protein kinase (PKA) (Homo sapiens, UniProt P22694+P17612+P22612); assay: Inhibition of PKA; format: protein assay
Protein kinase C (PKC) = assay: Inhibition of PKC; format: protein assay
[5] = target: Tyrosine-protein kinase Lck (Homo sapiens, UniProt P06239); assay: Inhibition of LCK
Chain of Tyrosine-protein kinase Lck (P06239 whole entry): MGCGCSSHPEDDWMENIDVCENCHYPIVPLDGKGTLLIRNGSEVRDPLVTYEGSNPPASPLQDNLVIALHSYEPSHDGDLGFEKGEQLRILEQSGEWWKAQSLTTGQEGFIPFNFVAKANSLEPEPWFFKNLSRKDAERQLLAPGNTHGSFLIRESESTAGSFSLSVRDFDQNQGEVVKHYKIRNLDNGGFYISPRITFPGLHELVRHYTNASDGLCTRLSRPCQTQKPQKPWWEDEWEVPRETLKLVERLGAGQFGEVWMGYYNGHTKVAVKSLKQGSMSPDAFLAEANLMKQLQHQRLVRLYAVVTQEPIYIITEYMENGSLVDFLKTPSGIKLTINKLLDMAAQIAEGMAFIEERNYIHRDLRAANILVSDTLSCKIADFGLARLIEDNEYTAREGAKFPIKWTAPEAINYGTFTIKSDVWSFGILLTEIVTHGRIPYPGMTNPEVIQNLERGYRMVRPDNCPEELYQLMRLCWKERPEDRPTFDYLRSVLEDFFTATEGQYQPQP

[6] = target: Cyclin-dependent kinase 7/ cyclin H (Homo sapiens, UniProt P50613); assay: Inhibition of CDK7/cyclin H; format: protein-complex assay
Chain of Cyclin-dependent kinase 7/ cyclin H (P51946 whole entry): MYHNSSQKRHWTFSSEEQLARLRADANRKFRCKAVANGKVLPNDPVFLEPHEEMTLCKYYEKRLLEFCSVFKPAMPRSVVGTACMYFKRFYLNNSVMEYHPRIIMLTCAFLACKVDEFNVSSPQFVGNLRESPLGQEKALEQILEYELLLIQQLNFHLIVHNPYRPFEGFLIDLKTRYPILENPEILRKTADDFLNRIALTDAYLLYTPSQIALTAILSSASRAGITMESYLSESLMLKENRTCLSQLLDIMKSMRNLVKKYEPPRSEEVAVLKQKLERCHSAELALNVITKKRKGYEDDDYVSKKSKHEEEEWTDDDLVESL
Chain of Cyclin-dependent kinase 7/ cyclin H (P50613 whole entry): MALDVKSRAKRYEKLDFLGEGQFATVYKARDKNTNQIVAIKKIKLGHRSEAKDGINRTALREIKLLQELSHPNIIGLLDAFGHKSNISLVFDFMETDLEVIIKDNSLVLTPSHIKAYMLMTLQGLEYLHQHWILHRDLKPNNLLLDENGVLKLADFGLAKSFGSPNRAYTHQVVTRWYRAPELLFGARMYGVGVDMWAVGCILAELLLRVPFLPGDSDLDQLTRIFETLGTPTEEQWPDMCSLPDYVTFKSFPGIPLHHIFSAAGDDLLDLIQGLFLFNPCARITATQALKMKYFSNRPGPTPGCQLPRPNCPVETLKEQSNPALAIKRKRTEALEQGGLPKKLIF

SMILES | IC50 [1] [nM] | IC50 [2] [nM] | also measured
CCCCOc1c(Cc2ccccc2)c[nH]c2nncc1-2 | > 25000 | – | –
CCCC(C)Oc1c(C(=O)c2ccccc2)cnc2[nH]ncc12 (stereo not given) | 520 | 310 | –
C=C(c1ccccc1)c1c[nH]c2nncc-2c1OCCCC | > 25000 | – | –
O=C(c1ccccc1)c1cnc2[nH]ncc2c1OC1CCCCC1 | 660 | 600 | –
CCCCSc1c(C(=O)c2ccccc2)cnc2[nH]ncc12 | 4400 | – | –
CC(C)CCOc1c(C(=O)c2ccccc2)c[nH]c2nncc1-2 | 180 | 240 | IC50 [4]: > 50000 nM; IC50 [3]: > 25000 nM; IC50 (Protein kinase C (PKC)): > 50000 nM; IC50 [5]: > 50000 nM; IC50 [6]: 1100 nM
CN(C)CCOc1c(C(=O)c2ccccc2)cnc2[nH]ncc12 | 17000 | – | –
CCCCN(C)c1c(C(=O)c2ccccc2)cnc2[nH]ncc12 | > 25000 | – | –
CCn1ncc2c(OCCC(C)C)c(C(=O)c3ccccc3)cnc21 | > 25000 | – | –
CCCCOc1c2cnnc-2[nH]cc1C(O)c1ccccc1 (stereo not given) | > 25000 | – | –

Continued, in another order:

IC50 [1] [nM] | IC50 [2] [nM] | SMILES | also measured
240 | 310 | CCCCCOc1c(C(=O)c2ccccc2)cnc2[nH]ncc12 | –
3700 | – | O=C(c1ccccc1)c1cnc2[nH]ncc2c1OCCO | –
110 | 150 | CCCCOc1c(C(=O)c2ccccc2)cnc2[nH]ncc12 [SQ-67563] | IC50 (A2780): 5800 nM; IC50 [3]: > 25000 nM
280 | 350 | O=C(c1ccccc1)c1cnc2[nH]ncc2c1OCc1ccccc1 | –
180 | 220 | CCCOc1c(C(=O)c2ccccc2)cnc2[nH]ncc12 | –
15000 | – | O=C(c1ccccc1)c1cnc2[nH]ncc2c1Oc1ccccc1 | –
